# Experimental data from PMC5384110 (European journal of medicinal chemistry, 2017).
# Tests used:
# Format in all cases: biochemical, HIV-1
# [1] = molecular target: RT mutant Y181C (Human immunodeficiency virus type 1 group M subtype B, UniProt P04585, Y768C); assay: RT pol assay against RT mutant Y181C
# [2] = molecular target: RT mutant K103N (Human immunodeficiency virus type 1 group M subtype B, UniProt P04585, K690N); assay: RT pol assay against RT mutant K103N
# [3] = molecular target: HIV integrase strand transfer (INST) (Human immunodeficiency virus type 1 group M subtype B, UniProt P04585); assay: INST assay
# [4] = molecular target: HIV RT pol (Human immunodeficiency virus type 1 group M subtype B, UniProt P04585); assay: RT pol assay; conditions: Table 1; mean ± SD, at least two independent experiments
# [5] = molecular target: HIV RT RNase H (Human immunodeficiency virus type 1 group M subtype B, UniProt P04585); assay: RNase H assay; conditions: read-out: RT IC50 RNH; Table 2; 3-deoxy precursor 11; tested up to 10 μM
Structure (SMILES),IC50 [3] [µM],other results
"CC(C)c1c(CC2CCCCC2)n(COCc2ccccc2)c(=O)n(O)c1=O [4a, 1-((Benzyloxy)methyl)-6-(cyclohexylmethyl)-3-hydroxy-5-isopropylpyrimidine-2,4(1H,3H)-dione]",> 100,IC50 [1]: > 10 µM; IC50 [2]: > 10 µM
"CC(C)c1c(CC2CCCCC2)n(COCc2ccc(F)cc2)c(=O)n(O)c1=O [4b, 6-(Cyclohexylmethyl)-1-(((4-fluorobenzyl)oxy)methyl)-3-hydroxy-5-isopropylpyrimidine-2,4(1H,3H)-dione]",> 100,
"CCc1c(CC2CCCCC2)n(COCc2ccccc2)c(=O)n(O)c1=O [4c, 1-((Benzyloxy)methyl)-6-(cyclohexylmethyl)-5-ethyl-3-hydroxypyrimidine-2,4(1H,3H)-dione]",> 100,
"CCc1c(CC2CCCCC2)n(COCc2ccc(F)cc2)c(=O)n(O)c1=O [4d, 6-(Cyclohexylmethyl)-5-ethyl-1-(((4-fluorobenzyl)oxy)methyl)-3-hydroxypyrimidine-2,4(1H,3H)-dione]",> 100,
"CCc1c(CC2CCCCC2)n(COCc2cccc(Cl)c2F)c(=O)n(O)c1=O [4e, 1-(((3-Chloro-2-fluorobenzyl)oxy)methyl)-6-(cyclohexylmethyl)-5-ethyl-3-hydroxypyrimidine-2,4(1H,3H)-dione]",> 100,
"CCc1c(CC2CCCCC2)n(COCc2ccc(F)c(F)c2)c(=O)n(O)c1=O [4f, 6-(Cyclohexylmethyl)-1-(((3,4-difluorobenzyl)oxy)methyl)-5-ethyl-3-hydroxypyrimidine-2,4(1H,3H)-dione]",> 100,RT IC50 Pol [4]: did not inhibit RT pol
"CCc1c(CC2CCCCC2)n(COCc2ccc(C(F)(F)F)cc2)c(=O)n(O)c1=O [4g, 6-(Cyclohexylmethyl)-5-ethyl-3-hydroxy-1-(((4-(trifluoromethyl)benzyl)oxy)methyl)pyrimidine-2,4(1H,3H)-dione]",> 100,
"CCc1c(CC2CCCCC2)n(COCc2ccc(C)cc2)c(=O)n(O)c1=O [4h, 6-(Cyclohexylmethyl)-5-ethyl-3-hydroxy-1-(((4-methylbenzyl)oxy)methyl) pyrimidine-2,4(1H,3H)-dione]",> 100,
"Cc1c(CC2CCCCC2)n(COCc2ccccc2)c(=O)n(O)c1=O [4i, 1-((Benzyloxy)methyl)-6-(cyclohexylmethyl)-3-hydroxy-5-methylpyrimidine-2,4(1H,3H)-dione]",> 100,
"Cc1c(CC2CCCCC2)n(COCc2cccc(Cl)c2F)c(=O)n(O)c1=O [4j, 1-(((3-Chloro-2-fluorobenzyl)oxy)methyl)-6-(cyclohexylmethyl)-3-hydroxy-5-methylpyrimidine-2,4(1H,3H)-dione]",> 100,
"Cc1c(CC2CCCCC2)n(COCc2ccc(F)c(F)c2)c(=O)n(O)c1=O [4k, 6-(Cyclohexylmethyl)-1-(((3,4-difluorobenzyl)oxy)methyl)-3-hydroxy-5-methyl pyrimidine-2,4(1H,3H)-dione]",> 100,
"Cc1c(CC2CCCCC2)n(COCc2ccc(C(F)(F)F)cc2)c(=O)n(O)c1=O [4l, 6-(Cyclohexylmethyl)-3-hydroxy-5-methyl-1-(((4-(trifluoromethyl)benzyl)oxy)methyl)pyrimidine-2,4(1H,3H)-dione]",> 100,
"Cc1c(CC2CCCCC2)n(COCCc2ccc(F)cc2)c(=O)n(O)c1=O [4m, 6-(Cyclohexylmethyl)-1-((4-fluorophenethoxy)methyl)-3-hydroxy-5-methyl pyrimidine-2,4(1H,3H)-dione]",> 100,
"CC(C)c1c(Cc2ccccc2)n(COCc2ccccc2)c(=O)[nH]c1=O [compound 14, TNK-651]",,IC50 [5]: > 10 µM
